# Data reported in BindingDB's records for doi:10.1021/jm980032l (Wake Forest University School of Medicine, 1998).
# Biological target: Sigma non-opioid intracellular receptor 1 (Cavia porcellus) (UniProt Q60492)
# Assay: Compound tested for binding affinity towards sigma 1 receptor in quinea pig brain membranes using [3H](+)-pentazocine as the radioligand.
# Sigma non-opioid intracellular receptor 1 (Cavia porcellus), sequence (Q60492 whole entry, looked up): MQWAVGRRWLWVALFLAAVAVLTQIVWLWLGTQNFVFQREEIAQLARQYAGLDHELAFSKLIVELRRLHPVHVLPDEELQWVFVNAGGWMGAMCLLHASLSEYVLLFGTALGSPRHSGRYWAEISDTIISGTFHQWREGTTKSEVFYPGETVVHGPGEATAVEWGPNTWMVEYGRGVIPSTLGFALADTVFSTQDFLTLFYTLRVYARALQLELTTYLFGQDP
row,Ki [nM],Compound
1,> 1000,"O=C(Cc1ccc(O)c(O)c1)NC1CCN(Cc2ccccc2)CC1 [N-(1-Benzyl-piperidin-4-yl)-2-(3,4-dihydroxy-phenyl)-acetamide]"

# Biological target: Sigma non-opioid intracellular receptor 1 (Cavia porcellus) (UniProt Q60492)
# Assay: Binding affinity against sigma-1 receptor in guinea pig brain membranes using [3H](+)-pentazocine as the radioligand
row,Ki [nM],Compound
1,30.1,"COc1ccc(NC(=O)NC2CCN(Cc3ccccc3)CC2)c(OC)c1 [1-(1-Benzyl-piperidin-4-yl)-3-(2,4-dimethoxy-phenyl)-urea]"
2,63.9,CSc1ccc(NC(=O)NC2CCN(Cc3ccccc3)CC2)cc1 [1-(1-Benzyl-piperidin-4-yl)-3-(4-methylsulfanyl-phenyl)-urea]
3,32.1,"COc1cccc(C(O)CNC2CCN(Cc3ccccc3)CC2)c1OC (stereo not given) [2-(1-Benzyl-piperidin-4-ylamino)-1-(2,3-dimethoxy-phenyl)-ethanol]"
4,470,Nc1ccc(CC(=O)NC2CCN(Cc3ccccc3)CC2)cc1 [2-(4-Amino-phenyl)-N-(1-benzyl-piperidin-4-yl)-acetamide]
5,7.32,"O=C(Cc1ccc2c(c1)OCO2)NC1CCN(Cc2ccccc2)CC1 [2-Benzo[1,3]dioxol-5-yl-N-(1-benzyl-piperidin-4-yl)-acetamide]"
6,9.66,"O=C(Cc1ccc(Cl)cc1Cl)NC1CCN(Cc2ccccc2)CC1 [N-(1-Benzyl-piperidin-4-yl)-2-(2,4-dichloro-phenyl)-acetamide]"
7,3.87,"O=C(Cc1ccc(F)cc1F)NC1CCN(Cc2ccccc2)CC1 [N-(1-Benzyl-piperidin-4-yl)-2-(2,4-difluoro-phenyl)-acetamide]"
8,14.2,"O=C(Cc1ccc([N+](=O)[O-])cc1[N+](=O)[O-])NC1CCN(Cc2ccccc2)CC1 [N-(1-Benzyl-piperidin-4-yl)-2-(2,4-dinitro-phenyl)-acetamide]"
9,4.21,"O=C(Cc1cc(F)ccc1F)NC1CCN(Cc2ccccc2)CC1 [N-(1-Benzyl-piperidin-4-yl)-2-(2,5-difluoro-phenyl)-acetamide]"
10,43.4,"COc1ccc(OC)c(CC(=O)NC2CCN(Cc3ccccc3)CC2)c1 [N-(1-Benzyl-piperidin-4-yl)-2-(2,5-dimethoxy-phenyl)-acetamide]"
11,7.28,"O=C(Cc1c(Cl)cccc1Cl)NC1CCN(Cc2ccccc2)CC1 [N-(1-Benzyl-piperidin-4-yl)-2-(2,6-dichloro-phenyl)-acetamide]"
12,5.8,"O=C(Cc1c(F)cccc1F)NC1CCN(Cc2ccccc2)CC1 [N-(1-Benzyl-piperidin-4-yl)-2-(2,6-difluoro-phenyl)-acetamide]"
13,2.89,O=C(Cc1ccccc1Br)NC1CCN(Cc2ccccc2)CC1 [N-(1-Benzyl-piperidin-4-yl)-2-(2-bromo-phenyl)-acetamide]
14,3.08,O=C(Cc1ccccc1Cl)NC1CCN(Cc2ccccc2)CC1 [N-(1-Benzyl-piperidin-4-yl)-2-(2-chloro-phenyl)-acetamide]
15,18.8,O=C(Cc1ccccc1O)NC1CCN(Cc2ccccc2)CC1 [N-(1-Benzyl-piperidin-4-yl)-2-(2-hydroxy-phenyl)-acetamide]
16,30.8,COc1ccccc1CC(=O)NC1CCN(Cc2ccccc2)CC1 [N-(1-Benzyl-piperidin-4-yl)-2-(2-methoxy-phenyl)-acetamide]
17,26.9,O=C(Cc1ccccc1[N+](=O)[O-])NC1CCN(Cc2ccccc2)CC1 [N-(1-Benzyl-piperidin-4-yl)-2-(2-nitro-phenyl)-acetamide]
18,8.7,O=C(Cc1ccccc1C(F)(F)F)NC1CCN(Cc2ccccc2)CC1 [N-(1-Benzyl-piperidin-4-yl)-2-(2-trifluoromethyl-phenyl)-acetamide]
19,80,"COc1cc(CC(=O)NC2CCN(Cc3ccccc3)CC2)cc(OC)c1OC [N-(1-Benzyl-piperidin-4-yl)-2-(3,4,5-trimethoxy-phenyl)-acetamide]"
20,5.22,"O=C(Cc1ccc(Cl)c(Cl)c1)NC1CCN(Cc2ccccc2)CC1 [N-(1-Benzyl-piperidin-4-yl)-2-(3,4-dichloro-phenyl)-acetamide]"

row,Ki [nM],Compound
1,3.17,"O=C(Cc1ccc(F)c(F)c1)NC1CCN(Cc2ccccc2)CC1 [N-(1-Benzyl-piperidin-4-yl)-2-(3,4-difluoro-phenyl)-acetamide]"
2,352,"COc1ccc(CC(=O)NC2CCN(Cc3ccccc3)CC2)cc1OC [N-(1-Benzyl-piperidin-4-yl)-2-(3,4-dimethoxy-phenyl)-acetamide]"
3,7.63,"O=C(Cc1cc(F)cc(F)c1)NC1CCN(Cc2ccccc2)CC1 [N-(1-Benzyl-piperidin-4-yl)-2-(3,5-difluoro-phenyl)-acetamide]"
4,121,"COc1cc(CC(=O)NC2CCN(Cc3ccccc3)CC2)cc(OC)c1 [N-(1-Benzyl-piperidin-4-yl)-2-(3,5-dimethoxy-phenyl)-acetamide]"
5,0.87,O=C(Cc1cccc(Br)c1)NC1CCN(Cc2ccccc2)CC1 [N-(1-Benzyl-piperidin-4-yl)-2-(3-bromo-phenyl)-acetamide]
6,23.8,O=C(Cc1ccc(O)c(Cl)c1)NC1CCN(Cc2ccccc2)CC1 [N-(1-Benzyl-piperidin-4-yl)-2-(3-chloro-4-hydroxy-phenyl)-acetamide]
7,1.4,O=C(Cc1cccc(Cl)c1)NC1CCN(Cc2ccccc2)CC1 [N-(1-Benzyl-piperidin-4-yl)-2-(3-chloro-phenyl)-acetamide]
8,2.45,O=C(Cc1cccc(F)c1)NC1CCN(Cc2ccccc2)CC1 [N-(1-Benzyl-piperidin-4-yl)-2-(3-fluoro-phenyl)-acetamide]
9,110,O=C(Cc1cccc(O)c1)NC1CCN(Cc2ccccc2)CC1 [N-(1-Benzyl-piperidin-4-yl)-2-(3-hydroxy-phenyl)-acetamide]
10,10.5,COc1cccc(CC(=O)NC2CCN(Cc3ccccc3)CC2)c1 [N-(1-Benzyl-piperidin-4-yl)-2-(3-methoxy-phenyl)-acetamide]
11,4.56,O=C(Cc1cccc([N+](=O)[O-])c1)NC1CCN(Cc2ccccc2)CC1 [N-(1-Benzyl-piperidin-4-yl)-2-(3-nitro-phenyl)-acetamide]
12,3.92,O=C(Cc1cccc(C(F)(F)F)c1)NC1CCN(Cc2ccccc2)CC1 [N-(1-Benzyl-piperidin-4-yl)-2-(3-trifluoromethyl-phenyl)-acetamide]
13,6.46,O=C(Cc1ccc(Cl)cc1)NC1CCN(Cc2ccccc2)CC1 [N-(1-Benzyl-piperidin-4-yl)-2-(4-chloro-phenyl)-acetamide]
14,3.43,O=C(Cc1ccc(F)cc1)NC1CCN(Cc2ccccc2)CC1 [N-(1-Benzyl-piperidin-4-yl)-2-(4-fluoro-phenyl)-acetamide]
15,286,O=C(Cc1ccc(O)cc1)NC1CCN(Cc2ccccc2)CC1 [N-(1-Benzyl-piperidin-4-yl)-2-(4-hydroxy-phenyl)-acetamide]
16,66.4,COc1ccc(CC(=O)NC2CCN(Cc3ccccc3)CC2)cc1 [N-(1-Benzyl-piperidin-4-yl)-2-(4-methoxy-phenyl)-acetamide]
17,27.1,CSc1ccc(CC(=O)NC2CCN(Cc3ccccc3)CC2)cc1 [N-(1-Benzyl-piperidin-4-yl)-2-(4-methylsulfanyl-phenyl)-acetamide]
18,18,O=C(Cc1ccc([N+](=O)[O-])cc1)NC1CCN(Cc2ccccc2)CC1 [N-(1-Benzyl-piperidin-4-yl)-2-(4-nitro-phenyl)-acetamide]
19,9.84,O=C(Cc1ccc(C(F)(F)F)cc1)NC1CCN(Cc2ccccc2)CC1 [N-(1-Benzyl-piperidin-4-yl)-2-(4-trifluoromethyl-phenyl)-acetamide]
